Measurements from US8329704B2, “Substituted pyrazinone derivatives for use in MCH-1 mediated diseases” (Janssen Pharmaceutica, N.V., priority 2005, dated 2012).

Molecular target: T1, human MCH-1 receptor (Homo sapiens, UniProt Q99705)
T1 construct: expressed in transfected cells
Experiment: Ca2+ mobilization experiment for the MCH-1 receptor (FLIPR), inhibition of MCH-induced Ca2+ mobilization
Assay type: cell-based
Conditions: CHO cells stably expressing human MCH-1 receptor, inhibition of MCH-induced Ca2+ response, read-out: MCH-1 pIC50 (converted)
Procedure: The interaction of the compounds of Formula (I) with MCH-1 receptors was assessed in in vitro transient calcium (Ca^2+) mobilization assays in the fluorimetric imaging plate reader (FLIPR) format (Sullivan et al. 1999, Methods Mol Biol 114:125-133). In general, the natural agonist (MCH) is incubated with cells expressing the MCH-1 receptor, which elicits a concentration-dependent transient mobilization of Ca^2+ from internal stores. The interaction of the test compounds with the receptor is assessed in competition experiments. Various concentrations of the test compound are added to the incubation mixture containing the receptor-expressing cells and a submaximal concentration of MCH. The test compound in proportion to its antagonist potency and its concentration inhibits MCH-induced Ca^2+ mobilization.
Chinese Hamster ovary cells (CHO) stably expressing the human MCH-1 receptor are grown in a 1:1 mixture of Dulbecco's Modified Eagles Medium (DMEM) and HAM's F12 medium including Glutamax™ (Invitrogen), supplemented with 10% heat-inactivated fetal bovine serum and 400 μg/ml geneticin.
Twenty-four hours before the experiment, MCH-1 receptor-expressing CHO cells are seeded in 20 μl (5,000 cells per well) into 384-well black wall, clear bottom microtiter plates (Costar). On the day of the experiment, 20 μl per well calcium assay kit containing 10 mM probenicide (Molecular Devices) is added. Cells are loaded for 90 min at 37° C. and 5% CO2 in a cell culture incubator. After loading, 20 μl of serial dilutions of the test compound are added and cells are further incubated for 20 min at room temperature in the dark. After 20 min, 20 μl of a submaximal MCH concentration is added and changes in intracellular calcium are recorded directly in a FLIPR III apparatus (Molecular devices).
Data from assays in the presence of compound were calculated as a percentage of total Ca^2+-responses measured in the absence of test compound. Inhibition curves, plotting percent of total Ca^2+-responses versus the log value of the concentration of the test compound, were automatically generated, and sigmoidal inhibition curves were fitted using non-linear regression. The pIC50 values of test compounds were derived from individual curves.

T1 sequence (Q99705 whole entry): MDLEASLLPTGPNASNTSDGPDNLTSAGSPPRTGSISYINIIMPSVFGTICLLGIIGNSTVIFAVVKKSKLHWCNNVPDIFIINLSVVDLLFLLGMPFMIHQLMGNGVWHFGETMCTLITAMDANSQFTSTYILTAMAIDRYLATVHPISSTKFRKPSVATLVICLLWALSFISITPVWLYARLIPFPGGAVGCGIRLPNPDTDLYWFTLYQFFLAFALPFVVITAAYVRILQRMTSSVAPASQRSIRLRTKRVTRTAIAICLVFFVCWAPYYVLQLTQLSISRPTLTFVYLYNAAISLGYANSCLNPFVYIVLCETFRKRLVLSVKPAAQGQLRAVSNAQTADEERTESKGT

| Structure (SMILES) | IC50 |
| --- | --- |
| COc1cc(-n2ccnc(NCCc3ccccc3)c2=O)ccc1OCCN1CCOC[C@@H]1C [3-60] | 63.1 nM |
| COc1cc(-n2ccnc(NCCc3ccccc3)c2=O)ccc1OCCCN1CCCC(CO)C1 (stereo not shown) [3-71] | 39.8 nM |
| COc1cc(-n2ccnc(NCCCOc3ccccc3)c2=O)ccc1OCCN(C)C(C)=O [7-03] | 31.6 nM |
| COCC(=O)N(C)CCOc1ccc(-n2ccnc(NCCOc3ccccc3)c2=O)cc1OC [1-64] | 100 nM |
| O=c1c(NCCOc2ccccc2)nccn1-c1ccc(NCCN2CCCC2)cc1 [1-20] | 200 nM |
| COc1cc(-n2ccnc(NCCc3ccccc3)c2=O)ccc1OC1CCN(C)C1 (stereo not shown) [3-32] | 79.4 nM |
| COc1cc(-n2ccnc(NCCc3ccccc3)c2=O)ccc1OCCN1[C@H](C)CCC[C@@H]1C [3-57] | 31.6 nM |
| COc1cc(-n2ccnc(OCCc3ccccc3)c2=O)ccc1OCCN1CCCC1 [2-06] | 79.4 nM |
| COc1cc(-n2ccnc(NCCc3ccccc3)c2=O)ccc1OCCN1CCCC(CO)C1 (stereo not shown) [3-49] | 31.6 nM |
| COc1cc(-n2ccnc(NCCc3ccccc3)c2=O)ccc1N1CCC(N)C1 (stereo not shown) [3-08] | 39.8 nM |
| Cc1cc(-n2ccnc(NCCOc3ccccc3)c2=O)ccc1OCCN1CCCC1 [1-48] | 50.1 nM |
| COc1cc(-n2ccnc(NCCOc3ccccc3)c2=O)ccc1OCCNCCO [1-60] | 200 nM |
| COc1cc(-n2ccnc(NCCOc3ccccc3)c2=O)ccc1OCCCN1CCC(F)(F)CC1 [1-79] | 39.8 nM |
| COc1cc(-n2ccnc(N3CCCC(c4ccccc4)C3)c2=O)ccc1OCCN1CCCC1 (stereo not shown) [4-01] | 1260 nM |
| COc1cc(-n2ccnc(NCCOc3ccccc3)c2=O)ccc1OCCCN1CCOCC1 [1-80] | 63.1 nM |
| COc1cc(-n2ccnc(NCCCOc3ccccc3)c2=O)ccc1OCCN1CCCC1 [2-13] | 15.8 nM |
| COc1cc(-n2ccnc(NCCOc3ccccc3)c2=O)ccc1OCCNC1CC1 [1-59] | 63.1 nM |
| COc1cc(-n2ccnc(SCCc3ccccc3)c2=O)ccc1N1CC[C@@H](N(C)C)C1 [6-06] | 15.8 nM |
| COc1cc(-n2ccnc(NCCOc3ccccc3)c2=O)ccc1N1CCC(O)C1 (stereo not shown) [1-08] | 398 nM |
| COc1cc(-n2ccnc(NCCOc3ccccc3C)c2=O)ccc1OCCN1CCCC1 [2-33] | 200 nM |
| COc1cc(-n2ccnc(NCCc3ccccc3)c2=O)ccc1OCCN1CCOCC1 [3-59] | 50.1 nM |
| COc1cc(-n2ccnc(NCCCOc3ccccc3Cl)c2=O)ccc1OCCN1CCCC1 [2-29] | 63.1 nM |
| O=c1c(NCCOc2ccccc2)nccn1-c1ccc(OCCN2CCN(c3ccccc3)CC2)cc1 [1-45] | 794 nM |
| CC(C)N(CCOc1ccc(-n2ccnc(NCCOc3ccccc3)c2=O)cc1)C(C)C [1-28] | 501 nM |
| COc1cc(-n2ccnc(NCCc3ccccc3)c2=O)ccc1OCCN1CC[C@@H](F)C1 [3-47] | 63.1 nM |
| COc1cc(-n2ccnc(NCCc3ccccc3)c2=O)ccc1N1CCC(NC(C)=O)C1 (stereo not shown) [3-09] | 63.1 nM |
| COc1cc(-n2ccnc(SCCc3ccccc3)c2=O)ccc1N1CCC(O)CC1 [6-11] | 126 nM |

| Structure (SMILES) | IC50 |
| --- | --- |
| COc1cc(-n2ccnc(NCCc3ccccc3)c2=O)ccc1OCCN1CCC(F)(F)CC1 [3-56] | 39.8 nM |
| CN(C)CCN(C)CCOc1ccc(-n2ccnc(NCCOc3ccccc3)c2=O)cc1 [1-27] | > 10000 nM |
| COc1cc(-n2ccnc(NCCCOc3cccc(C#N)c3)c2=O)ccc1OCCN1CCCC1 [2-44] | 79.4 nM |
| COCCN1CCN(c2ccc(-n3ccnc(NCCc4ccccc4)c3=O)cc2Cl)CC1 [3-80] | 79.4 nM |
| NC(=O)C1CCN(CCOc2ccc(-n3ccnc(NCCOc4ccccc4)c3=O)cc2)CC1 [1-41] | 631 nM |
| O=c1c(NCCCOc2ccccc2)nccn1-c1ccc(OCCN2CCCC2)cc1 [2-12] | 100 nM |
| COc1cc(-n2ccnc(NCCc3ccc(Cl)cc3Cl)c2=O)ccc1OCCN1CCCC1 [2-39] | 200 nM |
| COc1cc(-n2ccnc(NCCc3ccccc3)c2=O)ccc1OC[C@@H]1CCCN1C [3-35] | 25.1 nM |
| CCN(C)C1CCN(c2ccc(-n3ccnc(NCCc4ccccc4)c3=O)cc2OC)C1 (stereo not shown) [3-14] | 50.1 nM |
| COc1cc(-n2ccnc(NCCc3ccccc3)c2=O)ccc1OCCN1CCOC[C@H]1C [3-61] | 79.4 nM |
| COc1cc(-n2ccnc(NCCc3ccccc3)c2=O)ccc1N1CCN(C)CC1 [3-11] | 39.8 nM |
| CN[C@@H]1CCN(c2ccc(-n3ccnc(SCCc4ccccc4)c3=O)cc2OC)C1 [6-03] | 12.6 nM |
| CCCC(=O)N(C)CCOc1ccc(-n2ccnc(NCCOc3ccccc3)c2=O)cc1 [1-31] | 316 nM |
| COc1cc(-n2ccnc(NCCc3ccccc3)c2=O)ccc1NC1CCNC1 (stereo not shown) [3-24] | 200 nM |
| CN(CCOc1ccc(-n2ccnc(NCCOc3ccccc3)c2=O)cc1)CCc1ccccc1 [1-32] | 794 nM |
| COc1cc(-n2ccnc(NCCOc3ccccc3)c2=O)ccc1OCCN(C)C(C)=O [1-61] | 100 nM |
| COc1cc(-n2ccnc(NCCc3cccc(Cl)c3)c2=O)ccc1OCCN1CCCC1 [2-23] | 50.1 nM |
| COCCN(C)CCOc1ccc(-n2ccnc(NCCOc3ccccc3)c2=O)cc1 [1-29] | 1580 nM |
| O=c1c(NCCc2ccccc2)nccn1CCc1ccc(CN2CCOCC2)cc1 [9-02] | 39.8 nM |
| CNCCOc1ccc(-n2ccnc(NCCOc3ccccc3)c2=O)cc1 [1-23] | 1260 nM |
| CN(C)CC(=O)Nc1ccc(-n2ccnc(NCCOc3ccccc3)c2=O)cc1 [1-22] | 2000 nM |
| COc1cc(-n2ccnc(NCCc3ccccc3)c2=O)ccc1OCCN1CCC(C(N)=O)CC1 [3-53] | 50.1 nM |
| COc1cc(-n2ccnc(NCCOc3ccccc3)c2=O)ccc1/C=C/CN1CCCC1 [1-17] | 31.6 nM |
| COc1cc(-n2ccnc(NCCc3ccccc3)c2=O)ccc1OCCN1CCC(C(=O)N2CCCC2)CC1 [3-55] | 25.1 nM |
| COCC(=O)NCCOc1ccc(-n2ccnc(NCCc3ccccc3)c2=O)cc1OC [3-43] | 200 nM |
| COc1cc(-n2ccnc(CCCOc3ccccc3)c2=O)ccc1OCCN1CCCC1 [2-08] | 158 nM |
| COc1cc(-n2ccnc(NCCc3ccccc3Cl)c2=O)ccc1OCCN1CCCC1 [2-22] | 100 nM |

| Structure (SMILES) | IC50 |
| --- | --- |
| COc1cc(-n2ccnc(NCCOc3ccccc3)c2=O)ccc1N1CCC(NC(=O)C(C)C)CC1 [1-15] | 100 nM |
| COc1cc(-n2ccnc(NCCc3ccccc3)c2=O)ccc1OCCCNC(=O)C(C)C [3-67] | 126 nM |
| CCCN(C)C1CCN(c2ccc(-n3ccnc(NCCc4ccccc4)c3=O)cc2OC)C1 (stereo not shown) [3-15] | 50.1 nM |
| COc1cc(-n2ccnc(NCCOc3ccccc3)c2=O)ccc1OC1CCNCC1 [1-58] | 63.1 nM |
| O=c1c(NCCOc2ccccc2)nccn1-c1ccc(OCCN2CCC(F)CC2)cc1 [1-39] | 200 nM |
| COc1cc(-n2ccnc(NCCc3ccccc3)c2=O)ccc1OC[C@H]1CCCN1 [3-34] | 25.1 nM |
| COc1cc(-n2ccnc(NCCOc3ccccc3)c2=O)ccc1OCCN(C)C(=O)C1CCCC1 [1-65] | 100 nM |
| COc1cc(-n2ccnc(NCCOc3ccccc3)c2=O)ccc1OCCN1CCOCC1 [1-74] | 79.4 nM |
| COc1cc(-n2ccnc(NCCc3ccccc3)c2=O)ccc1N1CCC(N2CCC(O)C2)C1 (stereo not shown) [3-20] | 126 nM |
| COc1cccc(C2CCN(c3nccn(-c4ccc(OCCN5CCCC5)c(OC)c4)c3=O)C2)c1 (stereo not shown) [4-07] | 631 nM |
| COc1cc(-n2ccnc(NCCc3ccc(Br)cc3)c2=O)ccc1OCCN1CCCC1 [2-21] | 39.8 nM |
| CN(C)CCNc1ccc(-n2ccnc(NCCOc3ccccc3)c2=O)cc1 [1-19] | 100 nM |
| COc1cc(-n2ccnc(NCCc3ccccc3)c2=O)ccc1OCCN1CCC(C(=O)NC2CC2)CC1 [3-54] | 20 nM |
| COc1cc(-n2ccnc(NCCOc3ccccc3)c2=O)ccc1OCCN1CCCC1 [1-67] | 63.1 nM |
| O=c1c(NCCOc2ccccc2)nccn1-c1ccc(OCCN2CCCC2)cc1 [1-35] | 501 nM |
| COc1cc(-n2ccnc(NCCCOc3ccc(Cl)cc3)c2=O)ccc1OCCN1CCCC1 [2-32] | 63.1 nM |
| COc1ccc(CCNc2nccn(-c3ccc(OCCN4CCCC4)c(OC)c3)c2=O)cc1Cl [2-42] | 251 nM |
| COc1cc(-n2ccnc(NCCOc3ccccc3)c2=O)ccc1OCCCN1CCCC(CO)C1 (stereo not shown) [1-78] | 79.4 nM |
| COc1cc(-n2ccnc(NCCc3ccccc3)c2=O)ccc1OCCNC(=O)CN(C)C [3-40] | 79.4 nM |
| COc1cc(-n2ccnc(NCCOc3ccccc3)c2=O)ccc1OCCN1CCC(F)CC1 [1-69] | 5.01 nM |
| CN(C(=O)OC(C)(C)C)C1CCN(c2ccc(-n3ccnc(NCCOc4ccccc4)c3=O)cc2)C1 (stereo not shown) [1-04] | 1580 nM |
| COc1cc(-n2ccnc(NCCc3ccccc3)c2=O)ccc1OCCN1CCCC(C(N)=O)C1 (stereo not shown) [3-52] | 39.8 nM |
| COc1cc(-n2ccnc(NCCOc3ccccc3)c2=O)ccc1OCCN1CCC(F)CC1 [1-70] | 12.6 nM |
| COc1cc(-n2ccnc(NCCc3ccccc3)c2=O)ccc1OCCN1CCC(C#N)CC1 [3-51] | 39.8 nM |
| CN[C@H]1CCN(c2ccc(-n3ccnc(SCCc4ccccc4)c3=O)cc2OC)C1 [6-02] | 10 nM |
